Measurements taken from patent publication US10323018B2 (Millennium Pharmaceuticals, Inc., priority 2015, dated 2019).

How the values were obtained:
[1] = target: hNAMPT protein (Homo sapiens (Human), UniProt P43490); test: NAMPT enzyme assay (TR-FRET/HTRF with BodiPY ligand); type: binding; conditions: for inhibition at 1 µM: NAMPT inhibition at compound concentration 1 μM; for IC50: NAMPT inhibition, IC50 range class
Method in brief: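 Ligand displacement by TR-FRET: BodiPY emission (520 nm) over terbium (486 nm) after 320 nm excitation. Compound, BodiPY ligand, hNAMPT and anti-6His-Tb incubated 1 h at room temperature, dark, at pH 7.5. Percent inhibition computed versus DMSO; concentration-response curves fitted for IC50.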

[2] = tested on: PC3 cells; test: PC3 growth inhibition (Cell-titer glo, 72 hours); type: cell-based; conditions: Homo sapiens, PC-3, 72 h, read-out: Percent Viability, PC3 cells, compound concentration 1.667 μM, 72 hours
Method in brief: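 After 72 h compound treatment in AIM serum-free medium (37 °C, 5% CO2), viability of overnight-plated PC3 cells (8×10^4 cells/ml, RPMI1640-maintained) is read by CellTiter-Glo luminescence versus DMSO. Curves give GI50, LD50 or single-concentration % remaining viability.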

Sequence of hNAMPT protein (P43490 whole entry): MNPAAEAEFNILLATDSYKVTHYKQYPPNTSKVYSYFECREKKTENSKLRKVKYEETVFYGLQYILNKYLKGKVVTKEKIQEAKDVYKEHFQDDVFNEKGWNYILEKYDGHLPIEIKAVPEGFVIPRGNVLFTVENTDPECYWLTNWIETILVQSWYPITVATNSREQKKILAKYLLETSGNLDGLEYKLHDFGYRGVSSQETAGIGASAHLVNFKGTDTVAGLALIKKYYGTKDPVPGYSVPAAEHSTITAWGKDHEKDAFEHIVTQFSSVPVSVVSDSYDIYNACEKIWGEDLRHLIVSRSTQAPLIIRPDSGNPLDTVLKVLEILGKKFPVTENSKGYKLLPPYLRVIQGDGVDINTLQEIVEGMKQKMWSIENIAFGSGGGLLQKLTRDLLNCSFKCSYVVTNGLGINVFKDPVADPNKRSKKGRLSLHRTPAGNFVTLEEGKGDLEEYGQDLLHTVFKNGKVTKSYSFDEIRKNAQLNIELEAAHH

Compound | inhibition at 1 µM ([1]; read-out: Percent Inhibition) | IC50 [1] | viability at 1.667 µM [2] | inhibition at 0.33 µM ([1]; NAMPT inhibition at compound concentration 0.33 μM, read-out: Percent Inhibition)
CCOc1cc(-c2ccnc(C)c2)nc2cc(C(=O)NCCc3nnc[nH]3)ccc12 [Compound I-172, 4-ethoxy-2-(2-methylpyridin-4-yl)-N-[2-(4H-1,2,4-triazol-3-yl)ethyl]quinoline-7-carboxamide] | 71% | > 100 nM | 6% | 
CCOc1cc(-c2ccc(F)cc2)nc2cc(C(=O)NCCc3n[nH]nc3C)ccc12 [Compound I-203, 4-ethoxy-2-(4-fluorophenyl)-N-[2-(5-methyl-2H-1,2,3-triazol-4-yl)ethyl]quinoline-7-carboxamide] | 98% | < 10 nM | 2% | 
CCOc1cc(-c2ccc(Cl)s2)nc2cc(C(=O)NCc3nc4cnccc4[nH]3)ccc12 [Compound I-175, 2-(5-chloro-2-thienyl)-4-ethoxy-N-(1H-imidazo[4,5-c]pyridin-2-ylmethyl)quinoline-7-carboxamide] |  | < 10 nM | 2% | 98%
CCOc1cc(-c2cccc(S(C)(=O)=O)c2)nc2cc(C(=O)NCCCc3nnc[nH]3)ccc12 [Compound I-137, 4-ethoxy-2-[3-(methylsulfonyl)phenyl]-N-[3-(4H-1,2,4-triazol-3-yl)propyl]quinoline-7-carboxamide] | 97% | 10 to 50 nM | 2% | 
CCOc1cc(-c2ccc(C)nc2)nc2cc(C(=O)NCCc3[nH]nnc3C)ccc12 [Compound I-77, 4-ethoxy-2-(6-methylpyridin-3-yl)-N-[2-(4-methyl-1H-1,2,3-triazol-5-yl)ethyl]quinoline-7-carboxamide] | 97% | 10 to 50 nM | 1% | 
CCOc1cc(-c2ccc(=O)n(C)c2)nc2cc(C(=O)NCCCc3nnc[nH]3)ccc12 [Compound I-122, 4-ethoxy-2-(1-methyl-6-oxo-1,6-dihydropyridin-3-yl)-N-[3-(4H-1,2,4-triazol-3-yl)propyl]quinoline-7-carboxamide] | > 99% | 10 to 50 nM | 2% | 
CCOc1cc(-c2ccc(OC)nc2)nc2cc(C(=O)NCCCc3[nH]nnc3C)ccc12 [Compound I-93, 4-ethoxy-2-(6-methoxypyridin-3-yl)-N-[3-(4-methyl-1H-1,2,3-triazol-5-yl)propyl]quinoline-7-carboxamide] | 99% | 10 to 50 nM | 2% | 
CCOc1cc(-c2ccnc(C)c2)nc2cc(C(=O)NCCCc3ccn[nH]3)ccc12 [Compound I-149, 4-ethoxy-2-(2-methylpyridin-4-yl)-N-[3-(1H-pyrazol-5-yl)propyl]quinoline-7-carboxamide] | 96% | 10 to 50 nM | 2% | 
CCOc1cc(SCC)nc2cc(C(=O)NCCCc3ncc[nH]3)ccc12 [Compound I-49, N-(3-(1H-Imidazol-2-yl)propyl)-4-ethoxy-2-(ethylthio)quinoline-7-carboxamide] | 98% | < 10 nM | 5% | 
CCN(C)c1nc(-c2ccc(F)cc2)nc2cc(C(=O)NCCCc3ncc[nH]3)ccc12 [Compound I-39, 4-[ethyl(methyl)amino]-2-(4-fluorophenyl)-N-[3-(1H-imidazol-2-yl)propyl]quinazoline-7-carboxamide] | 96% | 10 to 50 nM | 2% | 
CCOc1cc(-c2cnccc2OC)nc2cc(C(=O)NCCCc3nnc[nH]3)ccc12 [Compound I-212, 4-ethoxy-2-(4-methoxypyridin-3-yl)-N-[3-(4H-1,2,4-triazol-3-yl)propyl]quinoline-7-carboxamide] | 69% | > 100 nM | 2% | 
CCOc1cc(-c2ccc(F)cc2OC)nc2cc(C(=O)NCCCc3[nH]nnc3C)ccc12 [Compound I-106, 4-ethoxy-2-(4-fluoro-2-methoxyphenyl)-N-[3-(4-methyl-1H-1,2,3-triazol-5-yl)propyl]quinoline-7-carboxamide] | 100% | 10 to 50 nM | 2% | 
CCOc1cc(-c2ccc(C)nc2)nc2cc(C(=O)NCCCc3[nH]nnc3C)ccc12 [Compound I-112, 4-ethoxy-2-(6-methylpyridin-3-yl)-N-[3-(4-methyl-1H-1,2,3-triazol-5-yl)propyl]quinoline-7-carboxamide] | 99% | 10 to 50 nM | 2% | 
CCOc1cc(-c2ccc(F)cc2)nc2cc(C(=O)NCCCc3cncn3C)ccc12 [Compound I-224, 4-ethoxy-2-(4-fluorophenyl)-N-[3-(1-methyl-1H-imidazol-5-yl)propyl]quinoline-7-carboxamide] | > 99% | < 10 nM | 2% | 
CCOc1cc(-c2ccc(F)cc2)nc2cc(C(=O)NCc3nc(N)n[nH]3)ccc12 [Compound I-141, N-[(3-amino-1H-1,2,4-triazol-5-yl)methyl]-4-ethoxy-2-(4-fluorophenyl)quinoline-7-carboxamide] | 82% | > 100 nM | 9% | 
CC(C)Cc1nc(-c2ccc(Cl)s2)nc2cc(C(=O)NCCCc3ncc[nH]3)ccc12 [Compound I-23, 2-(5-chloro-2-thienyl)-N-[3-(1H-imidazol-2-yl)propyl]-4-isobutylquinazoline-7-carboxamide] | > 99% | 10 to 50 nM | 1% | 
CCOc1cc(-c2ccc(F)cc2)nc2cc(C(=O)NCCCc3ncc[nH]3)ccc12 [Compound I-15, 4-ethoxy-2-(4-fluorophenyl)-N-[3-(1H-imidazol-2-yl)propyl]quinoline-7-carboxamide] | > 99% | < 10 nM | 2% | 
CCOc1cc(-c2ccc(OC)nc2)nc2cc(C(=O)NCCCc3nnc[nH]3)ccc12 [Compound I-101, 4-ethoxy-2-(6-methoxypyridin-3-yl)-N-[3-(4H-1,2,4-triazol-3-yl)propyl]quinoline-7-carboxamide] | 96% | 10 to 50 nM | 2% | 
CCOc1cc(-c2ccc(C)nc2OC)nc2cc(C(=O)NCCCc3nc[nH]n3)ccc12 [Compound I-183, 4-ethoxy-2-(2-methoxy-6-methylpyridin-3-yl)-N-[3-(1H-1,2,4-triazol-3-yl)propyl]quinoline-7-carboxamide] | 94% | 50 to 100 nM | 2% | 
CCOc1nc(-c2ccc(F)cc2)nc2cc(C(=O)NCCCc3cncnc3)ccc12 [Compound I-19, 4-ethoxy-2-(4-fluorophenyl)-N-[3-(pyrimidin-5-yl)propyl]quinazoline-7-carboxamide] | > 99% | < 10 nM | 1% | 
CCOc1cc(-c2ccnc(C)c2)nc2cc(C(=O)NCc3ccn4ncnc4c3)ccc12 [Compound I-86, 4-ethoxy-2-(2-methylpyridin-4-yl)-N-([1,2,4]triazolo[1,5-a]pyridin-7-ylmethyl)quinoline-7-carboxamide] | 99% | < 10 nM | 2% | 
CCOc1nc(-c2ccc(F)cc2)nc2cc(C(=O)NCCCc3ccnnc3)ccc12 [Compound I-29, 4-ethoxy-2-(4-fluorophenyl)-N-[3-(pyridazin-4-yl)propyl]quinazoline-7-carboxamide] | 100% | < 10 nM | 1% | 
COCCOc1cc(-c2ccc(F)cc2)nc2cc(C(=O)NCc3ccn4ncnc4c3)ccc12 [Compound I-82, 2-(4-fluorophenyl)-4-(2-methoxyethoxy)-N-([1,2,4]triazolo[1,5-a]pyridin-7-ylmethyl)quinoline-7-carboxamide] | 100% | < 10 nM | 2% | 
CCOc1cc(-c2ccc(OC)nc2OC)nc2cc(C(=O)NCCCc3nnc[nH]3)ccc12 [Compound I-143, 2-(2,6-dimethoxypyridin-3-yl)-4-ethoxy-N-[3-(4H-1,2,4-triazol-3-yl)propyl]quinoline-7-carboxamide] | 97% | 10 to 50 nM | 2% | 
CCOc1nc(-c2ccc(Cl)s2)nc2cc(C(=O)NCCCc3ncc[nH]3)ccc12 [Compound I-35, 2-(5-chloro-2-thienyl)-4-ethoxy-N-[3-(1H-imidazol-2-yl)propyl]quinazoline-7-carboxamide] | > 99% | < 10 nM | 1% | 
CCOc1cc(-c2ccnc(C)c2)nc2cc(C(=O)NCc3nc4cnccc4[nH]3)ccc12 [Compound I-99, 4-ethoxy-N-(1H-imidazo[4,5-c]pyridin-2-ylmethyl)-2-(2-methylpyridin-4-yl)quinoline-7-carboxamide] | > 99% | < 10 nM | 2% | 
CCOCc1nc(-c2ccc(Cl)cc2)nc2cc(C(=O)NCCCc3ncc[nH]3)ccc12 [Compound I-20, 2-(4-chlorophenyl)-4-(ethoxymethyl)-N-[3-(1H-imidazol-2-yl)propyl]quinazoline-7-carboxamide] | 98% | 10 to 50 nM | 1% | 
CCOc1cc(-c2cc(OC)ncc2F)nc2cc(C(=O)NCCc3cnn[nH]3)ccc12 [Compound I-189, 4-ethoxy-2-(5-fluoro-2-methoxypyridin-4-yl)-N-[2-(1H-1,2,3-triazol-5-yl)ethyl]quinoline-7-carboxamide] | 74% | > 100 nM | > 99% | 
